Laboratory results taken from patent publication US20120220603A1, “SUBSTITUTED HETEROCYCLIC DERIVATIVES FOR THE TREATMENT OF PAIN AND EPILEPSY” (ZALICUS PHARMACEUTICALS LTD., priority 2009, published 2012).
One block for each compound: values may come before it.

Experiments:
[1] = target: T1, CaV3.2 T-type Ca2+ channels expressed in HEK cells (Homo sapiens, UniProt O95180); test: CaV3.2 voltage-clamp electrophysiological assay (fast and slow inactivation); type: cell-based
T1 construct: expressed in transfected cells; host or cells: HEK cells
Source text: Prior to recording currents from CaV3.2 T-type Ca^2+ channels expressed in HEK cells, the culture media was replaced with extracellular solution (ECS) containing (in mM): 142 CsCl, 10 D-glucose, 2 CaCl2, 1 MgCl2, 10 HEPES, pH adjusted to 7.4 with CsOH. Borosilicate glass patch pipettes, pulled on a P-97 micropipette puller (Sutter Instruments, Novato, Calif.) with typical resistances of 2-4 MW, were backfilled with intracellular solution containing (in mM): 126.5 Cs-methanesulphonate, 2 MgCl2, 10 HEPES, 11 EGTA, 2 Na-ATP, pH adjusted to 7.3 CsOH. […] were recorded in the whole-cell configuration at room temperature (˜21° C.) using an Axopatch 200B (Molecular Devices, Sunnyvale, Calif.) patch-clamp amplifier. Recordings were low-pass filtered at 1 kHz (−3 dB 4-pole Bessel filter), digitized at 2 kHz with a Digidata 1322A interface (Molecular Devices), and acquired using pClamp 9.2 (Molecular Devices). No leak subtraction was used. Test compounds, prepared as 30 mM stock solutions in DMSO and diluted in extracellular buffer, were applied through a gravity driven multi-barrelled array of capillaries (24 gauge) connected to reservoirs controlled by solenoid valves. The effects of compounds on CaV3.2 slow and fast inactivation were evaluated using four different voltage protocols. The voltage dependence of fast and slow channel inactivation was examined using a two pulse protocol. Data were analyzed and fitted using OriginPro v.7.5 (OriginLab, Northampton, Mass.) software.

[2] = system: Rat SNL tactile allodynia; test: L5/L6 spinal nerve ligation (SNL) Chung pain model, tactile allodynia (von Frey); type: in vivo
Source text: The Spinal Nerve Ligation is an animal model representing peripheral nerve injury generating a neuropathic pain syndrome. In this model experimental animals develop the clinical symptoms of tactile allodynia and hyperalgesia. L5/L6 Spinal nerve ligation (SNL) injury was induced using the procedure of Kim and Chung (Kim et al., Pain 50:355-363 (1992)) in male Sprague-Dawley rats (Harlan; Indianapolis, Ind.) weighing 200 to 250 grams.
Anaesthesia was induced with 2% isofluorane in O2 at 2 L/min and maintained with 0.5% isofluorane in O2. Rats were then shaved and aseptically prepared for surgeries. A 2 cm paraspinal incision was made at the level of L4-S2. L4/L5 was exposed by removing the transverse process above the nerves with a small rongeur. The L5 spinal nerve is the larger of the two visible nerves below the transverse process and lies closest to the spine. The L6 spinal nerve is located beneath the corner of the slope bone. A home-made glass Chung rod was used to hook L5 or L6 and a pre-made slip knot of 4.0 silk suture was placed on the tip of the rod just above the nerve and pulled underneath to allow for the tight ligation. The L5 and L6 spinal nerves were tightly ligated distal to the dorsal root ganglion. The incision was closed, and the animals were allowed to recover for 5 days.
Sham control rats underwent the same operation and handling as the experimental animals, but without SNL.
Prior to initiating drug delivery, baseline behavioural testing data is obtained. At selected times after infusion of the Test or Control Article behavioural data can then be collected again.
The assessment of tactile allodynia consisted of measuring the withdrawal threshold of the paw ipsilateral to the site of nerve injury in response to probing with a series of calibrated von Frey filaments (innocuous stimuli). Animals were acclimated to the suspended wire-mesh cages for 30 min before testing. Each von Frey filament was applied perpendicularly to the plantar surface of the ligated paw of rats for 5 sec. A positive response was indicated by a sharp withdrawal of the paw. For rats, the first testing filament is 4.31. Measurements were taken before and after administration of test articles. […] The protocol was repeated until three changes in behaviour were determined (“up and down” method) (Chaplan et al., J. Neurosci. Methods 53:55-63 (1994)). The 50% paw withdrawal threshold was determined as (10^[Xf+kδ])/10,000, where Xf=the value of the last von Frey filament employed, k=Dixon value for the positive/negative pattern, and S=the logarithmic difference between stimuli. The cut-off values for rats were no less than 0.2 g and no higher than 15 g (5.18 filament); for mice no less than 0.03 g and no higher than 2.34 g (4.56 filament). A significant drop of the paw withdrawal threshold compared to the pre-treatment baseline is considered tactile allodynia. […]

[3] = target: T2, NaV1.7 channels expressed in HEK cells (Homo sapiens, UniProt Q15858); test: NaV1.7 voltage-clamp electrophysiological assay (enhancement of slow inactivation); type: cell-based
T2 construct: expressed in transfected cells; host or cells: HEK cells
Method: To examine the effects of compounds on enhancement of slow inactivation of NaV1.7 and NaV1.8 channels expressed in HEK cells the culture media was replaced with an extracellular solution containing (in mM): 137 NaCl, 4 KCl, 1.8 CaCl2, 1 MgCl2, 10 HEPES, 10 glucose, pH adjusted to 7.4 with NaOH. The intracellular solution contained (in mM): 130 KCl, 1 MgCl2, 5 EGTA, 10 HEPES, 5 K2ATP, adjusted to pH 7.3 with KOH. Whole-cell recordings, preparation and application of test compounds were performed in a similar manner to the CaV3.2 electrophysiological assays. Voltage protocols were applied to quantify the effects of test compounds to enhance slow inactivation for NaV1.7 and NaV1.8.

[4] = Rat Early Pharmacokinetic (EPK) study; type: in vivo; settings: PO, 30 mg/kg, formulation 10% DMSO/90% CMC; for Tmax: male, Sprague-Dawley, blood
Method: Male Sprague-Dawley rats were dosed via oral (PO) gavage in the detailed formulation. Blood samples were collected from the animals at 6 timepoints out to 4 hours post-dose. Pharmacokinetic analysis was performed on the LC-MS/MS measured concentrations for each timepoint of each compound.

[5] = system: seizures induced by 6 Hz corneal stimulation in CF1 mice; test: 6 Hz psychomotor seizure model of partial epilepsy; type: in vivo, mouse; set-up: Epilepsy 6 Hz (% protected): concentration or dose not given beside the values; settings: 32 mA
Method: Compounds were evaluated for the protection against seizures induced by a 6 Hz, 0.2 ms rectangular pulse width of 3 s duration, at a stimulus intensity of 32 mA (CC97) applied to the cornea of male CF1 mice (20-30 g) according to procedures described by Barton et al, “Pharmacological Characterization of the 6 Hz Psychomotor Seizure Model of Partial Epilepsy,” Epilepsy Res. 47(3):217-27 (2001). Seizures are characterised by the expression of one or more of the following behaviours: stun, forelimb clonus, twitching of the vibrissae and Straub-tail immediately following electrical stimulation.

[6] = system: mice on rotarod; test: Mouse rotarod assay (minimal muscular or neurological impairment); type: in vivo
Method: To assess a compound's undesirable side effects (toxicity), animals were monitored for overt signs of impaired neurological or muscular function. In mice, the rotarod procedure (Dunham and Miya, J. Am. Pharmacol. Assoc. 46:208-209 (1957)) is used to disclose minimal muscular or neurological impairment (MMI). When a mouse is placed on a rod that rotates at a speed of 6 rpm, the animal can maintain its equilibrium for long periods of time. The animal is considered toxic if it falls off this rotating rod three times during a 1-min period.

[7] = system: Lamina I/II spinal cord neurons; test: Lamina assay: current-clamp recordings on lamina I/II spinal cord neurons; type: cell-based, rat; settings: Lamina I and II, tonic firing neurons, current-clamp
Source text: Male Wistar rats (P6 to P9 for voltage-clamp and P15 to P18 for current-clamp recordings) were anaesthetized through intraperitoneal injection of Inactin (Sigma). The spinal cord was then rapidly dissected out and placed in an ice-cold solution protective sucrose solution containing (in mM): 50 sucrose, 92 NaCl, 15 D-Glucose, 26 NaHCO3, 5 KCl, 1.25 NaH2PO4, 0.5 CaCl2, 7 MgSO4, 1 kynurenic acid, and bubbled with 5% CO2/95% O2. The meninges, dura, and dorsal and ventral roots were then removed from the lumbar region of the spinal cord under a dissecting microscope. The “cleaned” lumbar region of the spinal cord was glued to the vibratome stage and immediately immersed in ice cold, bubbled, sucrose solution. For current-clamp recordings, 300 to 350 μm parasagittal slices were cut to preserve the dendritic arbour of lamina I neurons, while 350 to 400 μm transverse slices were prepared for voltage-clamped […] channel recordings. Slices were allowed to recover for 1 hour at 35° C. in Ringer solution containing (in mM): 125 NaCl, 20 D-Glucose, 26 NaHCO3, 3 KCl, 1.25 NaH2PO4, 2 CaCl2, 1 MgCl2, 1 kynurenic acid, 0.1 picrotoxin, bubbled with 5% CO2/95% O2. The slice recovery chamber was then returned to room temperature (20 to 22° C.) and all recordings were performed at this temperature.
Neurons were visualized using IR-DIC optics (Zeiss Axioskop 2 FS plus, Gottingen, Germany), and neurons from lamina I and the outer layer of lamina II were selected based on their location relative to the substantia gelatinosa layer. Neurons were patch-clamped using borosilicate glass patch pipettes with resistances of 3 to 6 MΩ. Current-clamp recordings of lamina I/II neurons in the intact slice, the external recording solution was the above Ringer solution, while the internal patch pipette solution contained (in mM): 140 KGluconate, 4 NaCl, 10 HEPES, 1 EGTA, 0.5 MgCl2, 4 MgATP, 0.5 Na2GTP, adjusted to pH 7.2 with 5 M KOH and to 290 mOsm with D-Mannitol (if necessary). Only tonic firing neurons were selected for current-clamp experiments, while phasic, delayed onset and single spike neurons were discarded (22). Recordings were digitized at 50 kHz and low-pass filtered at 2.4 kHz.

[8] = voltage-dependence of half inactivation, HEK cells, whole-cell

T1 sequence (O95180 whole entry): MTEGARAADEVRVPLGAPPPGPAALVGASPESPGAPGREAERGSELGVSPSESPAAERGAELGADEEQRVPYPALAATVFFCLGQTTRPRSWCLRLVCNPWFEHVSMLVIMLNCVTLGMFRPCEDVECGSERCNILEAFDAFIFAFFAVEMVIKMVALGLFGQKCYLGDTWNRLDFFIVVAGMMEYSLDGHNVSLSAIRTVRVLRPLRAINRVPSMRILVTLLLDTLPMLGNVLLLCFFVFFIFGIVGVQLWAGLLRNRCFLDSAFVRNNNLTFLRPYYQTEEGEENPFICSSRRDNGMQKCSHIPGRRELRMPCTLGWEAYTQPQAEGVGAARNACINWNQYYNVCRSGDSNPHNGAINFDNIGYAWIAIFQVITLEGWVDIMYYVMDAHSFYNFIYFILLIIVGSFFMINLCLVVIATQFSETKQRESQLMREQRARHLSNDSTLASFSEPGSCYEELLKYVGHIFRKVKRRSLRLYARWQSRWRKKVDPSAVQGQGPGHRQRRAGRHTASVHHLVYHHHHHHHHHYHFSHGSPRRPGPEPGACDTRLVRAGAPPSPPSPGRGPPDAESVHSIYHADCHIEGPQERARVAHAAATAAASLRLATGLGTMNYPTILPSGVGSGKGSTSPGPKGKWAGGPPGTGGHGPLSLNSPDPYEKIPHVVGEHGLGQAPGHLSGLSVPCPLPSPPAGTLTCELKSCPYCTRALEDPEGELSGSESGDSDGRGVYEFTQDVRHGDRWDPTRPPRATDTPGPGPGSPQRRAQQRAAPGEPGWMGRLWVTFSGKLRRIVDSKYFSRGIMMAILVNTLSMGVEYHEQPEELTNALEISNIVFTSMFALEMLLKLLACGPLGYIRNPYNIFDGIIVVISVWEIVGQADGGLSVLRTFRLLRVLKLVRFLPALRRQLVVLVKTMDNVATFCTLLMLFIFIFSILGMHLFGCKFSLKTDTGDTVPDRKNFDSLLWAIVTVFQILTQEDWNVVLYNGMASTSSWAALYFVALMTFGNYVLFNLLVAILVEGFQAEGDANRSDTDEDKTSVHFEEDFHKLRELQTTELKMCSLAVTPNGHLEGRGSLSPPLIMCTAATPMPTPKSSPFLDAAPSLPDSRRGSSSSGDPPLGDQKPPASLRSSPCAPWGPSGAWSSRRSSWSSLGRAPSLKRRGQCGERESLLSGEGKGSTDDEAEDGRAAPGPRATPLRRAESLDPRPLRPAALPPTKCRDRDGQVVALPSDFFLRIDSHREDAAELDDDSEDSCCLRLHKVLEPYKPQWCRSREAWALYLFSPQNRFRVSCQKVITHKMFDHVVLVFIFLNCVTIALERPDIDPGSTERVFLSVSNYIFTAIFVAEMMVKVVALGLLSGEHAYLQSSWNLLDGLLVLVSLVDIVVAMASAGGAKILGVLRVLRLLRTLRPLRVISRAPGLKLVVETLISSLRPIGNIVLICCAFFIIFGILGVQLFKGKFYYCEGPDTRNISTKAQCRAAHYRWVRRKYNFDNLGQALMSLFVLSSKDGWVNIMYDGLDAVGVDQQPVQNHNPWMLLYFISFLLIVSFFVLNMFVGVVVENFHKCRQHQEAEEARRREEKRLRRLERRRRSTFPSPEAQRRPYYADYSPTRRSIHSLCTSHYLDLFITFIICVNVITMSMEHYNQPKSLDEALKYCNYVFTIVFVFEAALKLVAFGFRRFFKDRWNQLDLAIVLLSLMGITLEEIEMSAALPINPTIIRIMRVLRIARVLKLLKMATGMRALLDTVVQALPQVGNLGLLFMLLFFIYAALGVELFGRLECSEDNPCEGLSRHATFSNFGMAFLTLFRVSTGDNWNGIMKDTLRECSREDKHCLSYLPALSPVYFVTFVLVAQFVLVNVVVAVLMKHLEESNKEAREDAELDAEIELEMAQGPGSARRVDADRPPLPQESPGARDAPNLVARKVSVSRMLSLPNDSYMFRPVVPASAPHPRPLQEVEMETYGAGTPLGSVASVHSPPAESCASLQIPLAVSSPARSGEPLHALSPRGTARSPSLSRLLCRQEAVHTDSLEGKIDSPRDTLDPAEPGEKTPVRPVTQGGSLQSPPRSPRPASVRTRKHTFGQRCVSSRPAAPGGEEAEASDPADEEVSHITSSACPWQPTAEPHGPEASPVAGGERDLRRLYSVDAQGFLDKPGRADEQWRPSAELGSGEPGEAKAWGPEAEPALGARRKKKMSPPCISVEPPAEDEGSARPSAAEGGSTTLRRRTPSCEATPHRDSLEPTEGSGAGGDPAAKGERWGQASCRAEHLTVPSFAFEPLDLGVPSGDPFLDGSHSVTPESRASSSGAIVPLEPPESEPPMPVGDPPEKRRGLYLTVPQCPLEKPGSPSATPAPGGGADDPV
T2 sequence (Q15858 whole entry): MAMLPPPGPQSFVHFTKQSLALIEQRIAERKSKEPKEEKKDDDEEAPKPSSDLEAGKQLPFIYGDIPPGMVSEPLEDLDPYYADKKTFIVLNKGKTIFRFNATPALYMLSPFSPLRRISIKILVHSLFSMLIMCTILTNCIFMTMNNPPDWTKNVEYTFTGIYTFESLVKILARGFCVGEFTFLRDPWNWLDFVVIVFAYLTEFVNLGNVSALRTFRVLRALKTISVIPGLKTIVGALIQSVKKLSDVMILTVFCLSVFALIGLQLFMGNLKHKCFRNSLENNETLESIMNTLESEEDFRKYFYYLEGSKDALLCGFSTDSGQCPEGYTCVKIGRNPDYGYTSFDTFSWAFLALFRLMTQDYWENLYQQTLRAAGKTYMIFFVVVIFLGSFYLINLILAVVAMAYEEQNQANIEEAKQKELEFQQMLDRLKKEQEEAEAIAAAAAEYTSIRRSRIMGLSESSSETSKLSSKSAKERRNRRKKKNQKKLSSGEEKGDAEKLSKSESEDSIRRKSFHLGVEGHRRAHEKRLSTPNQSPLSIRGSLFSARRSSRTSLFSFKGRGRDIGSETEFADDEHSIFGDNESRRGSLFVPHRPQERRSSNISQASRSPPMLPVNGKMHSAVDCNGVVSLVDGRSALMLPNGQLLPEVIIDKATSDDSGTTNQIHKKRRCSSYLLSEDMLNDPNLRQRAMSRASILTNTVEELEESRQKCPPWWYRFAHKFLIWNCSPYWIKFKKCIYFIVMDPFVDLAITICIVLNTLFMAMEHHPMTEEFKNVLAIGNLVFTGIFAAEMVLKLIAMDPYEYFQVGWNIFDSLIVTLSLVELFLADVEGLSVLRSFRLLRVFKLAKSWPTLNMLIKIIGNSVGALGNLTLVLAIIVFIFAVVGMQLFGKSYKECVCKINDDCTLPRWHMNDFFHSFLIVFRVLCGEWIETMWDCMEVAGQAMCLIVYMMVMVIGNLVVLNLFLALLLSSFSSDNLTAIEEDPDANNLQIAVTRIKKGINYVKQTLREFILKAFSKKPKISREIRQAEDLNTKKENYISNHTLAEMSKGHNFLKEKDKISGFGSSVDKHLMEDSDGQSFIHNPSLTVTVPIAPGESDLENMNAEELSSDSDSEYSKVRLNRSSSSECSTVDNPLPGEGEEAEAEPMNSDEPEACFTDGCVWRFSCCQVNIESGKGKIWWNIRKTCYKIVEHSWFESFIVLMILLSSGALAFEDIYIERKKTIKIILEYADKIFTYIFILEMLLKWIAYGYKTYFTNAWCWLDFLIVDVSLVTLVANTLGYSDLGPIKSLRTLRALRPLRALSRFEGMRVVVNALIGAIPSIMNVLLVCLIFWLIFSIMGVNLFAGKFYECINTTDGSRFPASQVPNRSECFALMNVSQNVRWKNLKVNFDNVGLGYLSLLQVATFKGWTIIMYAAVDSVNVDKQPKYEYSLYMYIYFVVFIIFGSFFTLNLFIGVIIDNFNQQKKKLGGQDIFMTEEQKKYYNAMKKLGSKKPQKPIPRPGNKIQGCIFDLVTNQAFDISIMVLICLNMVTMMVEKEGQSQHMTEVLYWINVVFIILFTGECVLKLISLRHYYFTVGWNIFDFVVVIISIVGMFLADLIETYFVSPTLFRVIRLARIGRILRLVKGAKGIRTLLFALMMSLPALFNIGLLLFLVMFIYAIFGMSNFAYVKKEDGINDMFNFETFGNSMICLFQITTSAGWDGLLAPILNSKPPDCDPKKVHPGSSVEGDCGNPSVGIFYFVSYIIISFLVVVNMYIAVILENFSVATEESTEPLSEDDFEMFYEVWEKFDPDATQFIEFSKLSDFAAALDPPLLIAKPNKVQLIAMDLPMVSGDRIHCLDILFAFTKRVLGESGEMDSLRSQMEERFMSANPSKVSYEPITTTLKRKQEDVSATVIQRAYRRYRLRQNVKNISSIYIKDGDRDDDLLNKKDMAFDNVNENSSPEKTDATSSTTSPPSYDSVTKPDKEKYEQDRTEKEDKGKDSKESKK

SMILES: O=C(CN1CCNCC1=O)Nc1cc(F)c(F)cc1F [Compound 2, 2-(2-oxopiperazin-1-yl)-N-(2,4,5-trifluorophenyl)acetamide]
Fraction of current recovered at 5.1 s interval ([1]; 5.1 s interval): 0.98
Fraction current remaining at −40 mV ([1]; at −40 mV): 0.58
V1/2 fast inactivation [1, 8]: −65 mV
V1/2 slow inactivation [1, 8]: −80 mV

SMILES: O=C1CNCCN1C(=O)CNc1cc(F)cc(F)c1 [Compound 3, 1-(2-(3,5-difluorophenylamino)acetyl)piperazin-2-one]
Rat SNL Tactile Allodynia (% Antiallodynia) ([2]; 1 hour): 1%
Rat SNL Tactile Allodynia (% Antiallodynia) ([2]; 4 hours): 4%

SMILES: O=C1CN(C(=O)CNc2cc(C(F)(F)F)cc(C(F)(F)F)c2)CCN1 [Compound 10, 4-(2-(3,5-bis(trifluoromethyl)phenylamino)acetyl)piperazin-2-one]
Fraction current remaining ([3]; concentration tested 10 μM): 0.91
Fraction current remaining ([3]; concentration tested 100 μM): 0.74
Rat SNL Tactile Allodynia (% Antiallodynia) ([2]; 1 hour): 10%
Rat SNL Tactile Allodynia (% Antiallodynia) ([2]; 2 hours): 13%
Rat SNL Tactile Allodynia (% Antiallodynia) ([2]; 4 hours): 15%
Dose Normalized AUC [4]: 1,192 nM*h
Dose Normalized Cmax [4]: 355 nM
Tmax [4]: 72 min

SMILES: O=C1CN(C(=O)CNc2cc(F)cc(C(F)(F)F)c2)CCN1 [Compound 11, 4-(2-(3-fluoro-5-(trifluoromethyl)phenylamino)acetyl)piperazin-2-one]
Rat SNL Tactile Allodynia (% Antiallodynia) ([2]; 1 hour): 9%
Rat SNL Tactile Allodynia (% Antiallodynia) ([2]; 2 hours): 4%
Rat SNL Tactile Allodynia (% Antiallodynia) ([2]; 4 hours): 1%

SMILES: CC1(C)C(=O)NCCN1C(=O)CNc1cc(C(F)(F)F)cc(C(F)(F)F)c1 [Compound 12, 4-(2-(3,5-bis(trifluoromethyl)phenylamino)acetyl)-3,3-dimethylpiperazin-2-one]
Rat SNL Tactile Allodynia (% Antiallodynia) ([2]; 1 hour): 9%
Rat SNL Tactile Allodynia (% Antiallodynia) ([2]; 2 hours): 11%
Rat SNL Tactile Allodynia (% Antiallodynia) ([2]; 4 hours): 42%

SMILES: O=C(CC1CCNCC1)Nc1cc(C(F)(F)F)cc(C(F)(F)F)c1 [Compound 19, N-(3,5-bis(trifluoromethyl)phenyl)-2-(piperidin-4-yl)acetamide]
Rat SNL Tactile Allodynia (% Antiallodynia) ([2]; 1 hour): 47%
Rat SNL Tactile Allodynia (% Antiallodynia) ([2]; 2 hours): 39%
Rat SNL Tactile Allodynia (% Antiallodynia) ([2]; 4 hours): 32%
Epilepsy 6 Hz (% protected) ([5]; 0.25 hr): 100%
Epilepsy 6 Hz (% protected) ([5]; 0.5 hr): 100%
Epilepsy 6 Hz (% protected) ([5]; 1 hr): 100%
Epilepsy 6 Hz (% protected) ([5]; 2 hr): 100%
Epilepsy 6 Hz (% protected) ([5]; 4 hr): 0%
% Impaired ([6]; 0.25 hr): 0%
% Impaired ([6]; 0.5 hr): 75%
% Impaired ([6]; 1 hr): 100%
% Impaired ([6]; 2 hr): 100%
% Impaired ([6]; 4 hr): 100%
% Spike Change (Mean; % change from control) [7]: −30.3%

Further lines, with some results ahead:

Dose Normalized AUC [4]: 458 nM·h
Dose Normalized Cmax [4]: 172 nM
Tmax [4]: 40.2 min
SMILES: CC1(C)CN(CC(=O)Nc2cc(C(F)(F)F)cc(C(F)(F)F)c2)C(=O)CN1 [Compound 13, N-(3,5-bis(trifluoromethyl)phenyl)-2-(5,5-dimethyl-2-oxopiperazin-1-yl)acetamide]
Rat SNL Tactile Allodynia (% Antiallodynia) ([2]; 1 hour): 16%
Rat SNL Tactile Allodynia (% Antiallodynia) ([2]; 2 hours): 8%
Rat SNL Tactile Allodynia (% Antiallodynia) ([2]; 4 hours): 5%
Anti-allodynia in rat SNL tactile allodynia (in words) ([2]; at 60 minutes compared to baseline and post-SNL): significant anti-allodynia

Fraction current remaining ([3]; concentration tested 30 μM): 0.87
SMILES: O=C(CN1CCNCC1=O)NCc1cc(C(F)(F)F)cc(C(F)(F)F)c1 [Compound 20, N-(3,5-bis(trifluoromethyl)benzyl)-2-(2-oxopiperazin-1-yl)acetamide]

Fraction current remaining ([3]; concentration tested 30 μM): 0.91
SMILES: O=C(NCCN1CCNCC1=O)c1cc(F)cc(C(F)(F)F)c1 [Compound 23, 3-fluoro-N-(2-(2-oxopiperazin-1-yl)ethyl)-5-(trifluoromethyl)benzamide]
